{SH} = thiol linker
How the values were obtained:
[1] = doxorubicin capture in linear nucleic acid, doxorubicin autofluorescence; type: physicochemical; settings: room temperature, 24 hours; linear nucleic acid:doxorubicin 1:1 to 1:20; FIG. 5
Method: To contain doxorubicin in a new nucleic acid-based functional anticancer drug, linear nucleic acids represented by SEQ. ID. NO: 2 ([NT]) and SEQ. ID. NO: 3 (5'-/thiol/[NT]3') were used. To prepare a doxorubicin-binding linear nucleic acid, the linear nucleic acid and doxorubicin were mixed with various concentrations (linear nucleic acid:doxorubicin=1:1 to 1:20) and reacted at room temperature for 24 hours, and autofluorescence of the doxorubicin was detected.

[2] = luminescence activity of m-Rluc8 compared with wild-type luciferase; type: biochemical; settings: versus wild-type luciferase purified by the same method; FIG. 2
Text: To obtain a high efficiency self-luminescent light source, a modified self-illuminative protein (m-Rluc8) in which artificial mutation occurred on an amino acid sequence of a wild-type luciferase was expressed in E. coli and purified. That is, an expression vector (m-Rluc8_pPAL7) into which the modified self-illuminative protein (m-Rluc8) consisting of an amino acid sequence (SEQ. ID. NO: 1) shown in FIG. 1 was inserted was manufactured, transformed into and expressed in E. coli BL21 strain cells and then purified, thereby obtaining a high purity modified self-illuminative protein (m-Rluc8).

| Molecule | maximum doxorubicin binding to 1 μM linear nucleic acid [1] [µM] | luminescence activity relative to wild-type luciferase [2] |
| --- | --- | --- |
| linear nucleic acid (DNA GTCGCAGGCACATCAGTACAGCCAGATCCGTACCTACTCG; DNA, 5' {SH}, backbone and methylation of C not given here; conjugated to gold) | 10 |  |
| m-Rluc8: modified self-illuminative protein of SEQ. ID. NO: 1, wild-type Renilla luciferase mutated at 8 sites (protein, Renilla luciferase, ID; NO: 1, wild-type Renilla luciferase mutated at 8 sites) MASKVYDPEQRKRMITGPQWWARCKQMNVLDSFINYYDSEKHAENAVIFLHGNATSSYLWRHVVPHIEPVARCIIPDLIGMGKSGKSGNGSYRLLDHYKYLTAWFELLNLPKKIIFVGHDWGAALAFHYAYEHQDRIKAIVHMESVVDVIESWDEWPDIEEDIALIKSEEGEKMVLENNFFVETVLPSKIMRKLEPEEFAAYLEPFKEKGEVRRPTLSWPREIPLVKGGKPDVVQIVRNYNAYLRASDDLPKLFIESDPGFFSNAIVEGAKKFPNTEFVKVKGLHFLQEDAPDEMGKYIKSFVERVLKNEQ |  | more than 5.65 fold |

— US10010561B2, “Method of treating cancer using high efficiency self-illuminative nanocomplexes and method of manufacturing the same” (Research & Business Foundation Sungkyunkwan University, priority 2014, dated 2018)
